Key:
[1] = test system: human vascular ATP-dependent K+ channels; conditions: cited from earlier work
[2] = allows once daily treatment; cited from earlier work
[3] = test system: type 2 diabetes patients; conditions: overweight type 2 diabetes patients assigned metformin; microvascular and macrovascular; cited from earlier work
[4] = oral, conventional metformin; cited from earlier work
[5] = In-house study: metformin co-administered with propantheline; format: in vivo; conditions: compared with metformin alone
[6] = cited from earlier work
[7] = test system: people with diabetes; conditions: versus placebo, cited from earlier work

CCC1=C(C)CN(C(=O)NCCc2ccc(S(=O)(=O)NC(=O)N[C@H]3CC[C@H](C)CC3)cc2)C1=O [glimepiride]
effect on human vascular ATP-dependent K+ channels [1]: no effect | long life [2]: 9 h

CN(C)C(=N)N=C(N)N [metformin]
relative risk reduction of developing any diabetes related end points [3]: 32% | gastrointestinal absorption apparently complete (time after ingestion) [4]: ≤ 6 h | AUC [5]: increased | Tmax [5]: delayed | time period over which therapeutically beneficial plasma levels were maintained [5]: extended | drug in plasma ([6]; drug perfused into the colon): not detectable | area under the plasma concentration-time profile, jejunum versus ileum perfusion ([6]; perfusion into jejunum compared with ileum): 2.5 fold

CCOC(=O)[C@H](CCc1ccccc1)N[C@@H](C)C(=O)N1[C@H](C(=O)O)C[C@@H]2CCC[C@@H]21 [ramipril]
lowering of relative risk of a major cardiovascular event (myocardial infarction, stroke or cardiovascular death) ([7]; 3,577 people with diabetes, 4.5 years): 25% | lowering of absolute risk of a major cardiovascular event ([7]; 3,577 people with diabetes): 4.5% | absolute risk reduction of overt nephropathy ([7]; people with diabetes): 2.0% | reduction of relative risk of overt nephropathy ([7]; people with diabetes): 24%

From patent US20060134206A1, “Oral compositions for treatment of diseases” (priority 2003, published 2006)
